Test results: PMC8259862, “Latency, thermal stability, and identification of an inhibitory compound of mirolysin, a secretory protease of the human periodontopathogen Tannerella forsythia” (Journal of Enzyme Inhibition and Medicinal Chemistry, 2021)
Where “and” joins values, the source holds several entries; their conditions need not be identical. Equal values may be shown once.

What was measured:
[1] = biological target: Lys-specific gingipain, Kgp; set-up: method as in PMID 15361547; conditions: cited from earlier work
mirolysin [2] = biological target: T1, mirolysin (Tannerella forsythia, UniProt A0A0F7IPS1); experiment: Screening round II: inhibitory activity of the 21 fragments against mirolysin (FTC-casein); type: biochemical; conditions: molar ratio 50:1 (compound:enzyme), read-out: reduction of mirolysin activity (screening round II)
T1 sequence (A0A0F7IPS1 entry or part of it): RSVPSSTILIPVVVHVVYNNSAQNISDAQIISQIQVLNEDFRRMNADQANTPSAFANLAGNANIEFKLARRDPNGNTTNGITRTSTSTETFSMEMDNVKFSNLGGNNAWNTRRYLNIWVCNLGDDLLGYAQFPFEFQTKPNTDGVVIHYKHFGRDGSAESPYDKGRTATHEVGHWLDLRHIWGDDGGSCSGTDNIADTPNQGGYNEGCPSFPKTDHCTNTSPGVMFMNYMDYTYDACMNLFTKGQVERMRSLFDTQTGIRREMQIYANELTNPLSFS
Experimental: (§1) Mirolysin activity was routinely determined in assay buffer (50 mM Tris, 150 mM NaCl, 5 mM CaCl2, 0.02% NaN3, pH 7.5) supplemented with 0.05% Pluronic F-127, employing Azocoll or FTC-caseins as a substrate. Briefly, an Azocoll suspension was added to the sample in Eppendorf tubes and vigorously shaken for 15 min–2 h at 37 °C. Undigested Azocoll was removed by centrifugation (16,100 × g, 5 min, 4 °C), and the absorbance at 410 nm was measured using a Sunrise absorbance microplate reader (Tecan, Männedorf, Switzerland). In the case of FTC-casein, analysed samples were transferred into wells of a black microtiter plate (Nunc, Roskilde, Denmark), and then the FTC-casein solution was added. Proteolytic activity was recorded as an increase in fluorescence (excitation/emission = 485/538 nm) over time using a SpectraMax Gemini EM reader (Molecular Devices, San Jose, CA, USA).
Mirolysin (40 nM) was mixed with each of the 21 compounds (2 µM) (Supplementary Table 1) in assay buffer (50 mM Tris, 150 mM NaCl, 5 mM CaCl2, 0.02% NaN3, 0.05% Pluronic F-127, pH 7.5) in a 96-well plate (total volume, 100 µl). After 15 min at 37 °C, 100 µl of the substrate solution FTC-casein (100 µg/ml) was added, and substrate hydrolysis was monitored. The percentage of inhibition was determined relative to the sample containing the enzyme without any compound added (control sample). […]

RgpB = biological target: T2, RgpB (Porphyromonas gingivalis, UniProt P95493); experiment: Screening of compound specificity: RgpB; type: biochemical; conditions: 100 nM protease, 100 M excess of compound, FTC-casein
T2 construct: His; made in house
T2 sequence (P95493 230-736): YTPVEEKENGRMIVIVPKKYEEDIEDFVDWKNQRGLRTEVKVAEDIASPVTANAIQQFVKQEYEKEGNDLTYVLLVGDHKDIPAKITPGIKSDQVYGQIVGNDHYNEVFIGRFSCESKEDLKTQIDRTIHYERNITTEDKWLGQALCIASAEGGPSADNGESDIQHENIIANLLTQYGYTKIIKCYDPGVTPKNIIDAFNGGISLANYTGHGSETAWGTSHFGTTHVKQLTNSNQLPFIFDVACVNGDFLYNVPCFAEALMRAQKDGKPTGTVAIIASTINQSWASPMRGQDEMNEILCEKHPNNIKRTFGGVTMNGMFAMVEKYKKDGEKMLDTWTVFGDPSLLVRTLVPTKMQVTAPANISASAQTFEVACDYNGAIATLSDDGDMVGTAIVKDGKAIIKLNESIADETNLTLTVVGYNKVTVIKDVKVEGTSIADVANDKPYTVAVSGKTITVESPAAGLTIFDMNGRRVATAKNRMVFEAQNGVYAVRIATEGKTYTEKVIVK
Experimental: (§2) The residual proteolytic activity was determined employing Azocoll (12 mg/ml) or, for gingipains only, FTC-casein (50 µg/ml), as described above.

mirolysin [3] = biological target: T1, mirolysin; experiment: Dose-dependent inhibition of mirolysin (Azocoll); type: biochemical
Experimental: as §1
Mirolysin (0.1 µM) was incubated with increasing concentrations of compounds (0–100 µM) in 50 µl assay buffer (50 mM Tris, 0.15 M NaCl, 5 mM CaCl2, 0.02% NaN3, pH 7.5) for 15 min at 37 °C, before 200 µl Azocoll suspension (15 mg/ml in assay buffer) was added.

forsilysin = experiment: Screening of compound specificity: forsilysin; type: biochemical, Tannerella forsythia; conditions: 100 nM protease, 100 M excess of compound, Azocoll
Experimental: as §2

bovine trypsin = biological target: T3, bovine trypsin (Bos taurus, UniProt P00760); experiment: Screening of compound specificity: trypsin; type: biochemical; conditions: 100 nM protease, 100 M excess of compound, Azocoll
T3 construct: purchased Merck Sigma-Aldrich
T3 sequence (P00760 24-246): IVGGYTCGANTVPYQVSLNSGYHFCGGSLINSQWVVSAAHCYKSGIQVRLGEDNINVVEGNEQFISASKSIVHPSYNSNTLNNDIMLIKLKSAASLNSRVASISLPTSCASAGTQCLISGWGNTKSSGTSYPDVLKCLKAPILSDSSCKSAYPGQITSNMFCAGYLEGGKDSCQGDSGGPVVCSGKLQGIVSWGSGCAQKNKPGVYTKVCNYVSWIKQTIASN
Experimental: as §2

karilysin = biological target: T4, karilysin (Tannerella forsythia, UniProt D0EM77); experiment: Screening of compound specificity: karilysin; type: biochemical; conditions: 100 nM protease, 100 M excess of compound, Azocoll
T4 construct: made in house
T4 sequence (D0EM77 35-472): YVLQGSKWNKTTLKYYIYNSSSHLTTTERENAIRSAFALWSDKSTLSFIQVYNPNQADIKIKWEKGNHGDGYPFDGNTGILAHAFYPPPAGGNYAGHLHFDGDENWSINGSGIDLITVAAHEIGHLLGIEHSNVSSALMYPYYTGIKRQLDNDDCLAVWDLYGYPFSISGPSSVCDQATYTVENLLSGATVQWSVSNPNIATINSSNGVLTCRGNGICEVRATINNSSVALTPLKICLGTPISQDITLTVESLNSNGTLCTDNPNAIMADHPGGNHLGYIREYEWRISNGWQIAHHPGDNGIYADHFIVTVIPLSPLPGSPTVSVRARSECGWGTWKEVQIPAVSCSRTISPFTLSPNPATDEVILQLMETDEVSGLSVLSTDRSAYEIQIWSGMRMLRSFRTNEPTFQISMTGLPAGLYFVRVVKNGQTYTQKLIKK
Experimental: as §2

mirolase = experiment: Screening of compound specificity: mirolase; type: biochemical, Tannerella forsythia; conditions: 100 nM protease, 100 M excess of compound, Azocoll
Experimental: as §2

mirolysin [4] = biological target: T1, mirolysin; experiment: Determination of inhibition constant (Ki) and mode of inhibition (FTC-casein); type: biochemical; conditions: for mode of inhibition: Lineweaver-Burk plot
Experimental: After 15 min of incubation at 37 °C, 100 µl fluorogenic protein substrate FTC-casein was added at different concentrations (5–120 µg/ml), and the residual proteolytic activity was recorded. The mode of inhibition of target proteases by the compounds was determined graphically using the Lineweaver–Burk plot using Equation (2): (2) 1/V=Km/Vmax×1/[S]+1/Vmax where V is the reaction velocity, Vmax is the maximum V, Km is the Michaelis–Menten constant, and [S] is the substrate concentration. The Ki was determined using a macro for competitive inhibition from GraphPad Prism software (La Jolla, CA, USA) and Equation (3): (3) V=Vmax×[S]/Kmobs+[S]; Kmobs=Km×(1+[I]/Ki) where Kmobs is the Michaelis–Menten constant in the presence of inhibitor, and [I] is the inhibitor concentration.

human plasmin = biological target: T5, human plasmin (Homo sapiens, UniProt P00747); experiment: Screening of compound specificity: plasmin; type: biochemical; conditions: 100 nM protease, 100 M excess of compound, Azocoll
T5 construct: purchased Merck Sigma-Aldrich
T5 sequence (P00747 581-810 limits assumed): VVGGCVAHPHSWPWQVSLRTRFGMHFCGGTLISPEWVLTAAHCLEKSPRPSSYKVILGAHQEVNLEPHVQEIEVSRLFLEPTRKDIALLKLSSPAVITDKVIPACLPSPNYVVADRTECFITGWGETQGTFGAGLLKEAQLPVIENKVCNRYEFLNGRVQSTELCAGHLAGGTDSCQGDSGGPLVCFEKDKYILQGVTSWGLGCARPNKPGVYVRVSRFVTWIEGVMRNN
T5 sequence (P00747 97-580 partner limits assumed): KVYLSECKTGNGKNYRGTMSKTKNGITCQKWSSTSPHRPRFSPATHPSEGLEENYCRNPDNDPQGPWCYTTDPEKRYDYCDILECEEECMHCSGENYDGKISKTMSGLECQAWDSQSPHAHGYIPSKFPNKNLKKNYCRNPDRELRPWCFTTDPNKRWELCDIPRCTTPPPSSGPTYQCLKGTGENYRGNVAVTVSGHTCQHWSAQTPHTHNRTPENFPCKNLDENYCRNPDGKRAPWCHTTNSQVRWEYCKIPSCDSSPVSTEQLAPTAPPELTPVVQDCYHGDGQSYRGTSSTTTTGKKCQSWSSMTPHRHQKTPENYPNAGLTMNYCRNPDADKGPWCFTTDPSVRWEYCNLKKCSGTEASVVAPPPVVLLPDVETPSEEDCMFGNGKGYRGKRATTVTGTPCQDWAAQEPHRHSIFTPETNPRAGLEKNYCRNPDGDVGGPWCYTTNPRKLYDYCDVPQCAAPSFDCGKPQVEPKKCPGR
Experimental: as §2

mirolysin [5] = biological target: T1, mirolysin; experiment: 2D NMR titration of 15N-labelled mirolysin (KD); type: binding; conditions: KD by NMR titration, estimated from peaks in fast exchange, 298 K
Experimental: The custom-selected Maybridge diversity library of 1500 fragments was screened using the saturation transfer difference (STD) ligand-based approach, with fragments pooled into cocktails of five fragments each. STD spectra were recorded at a concentration of 10 µM mirolysin, with the final concentration of each fragment in the sample at 1 mM. D6-DMSO was used for the lock signal. STD experiments used alternating on- and off-resonance saturation (2s saturation, Gaussian pulse, +0.6 ppm, −5 ppm, 128 scans) with water suppression using a double-pulsed-field gradient spin-echo (DPFGSE) watergate W5 double-echo sequence[32]^,[33]. Spectra were compared with a reference containing d6-DMSO only. […] Hits identified using STD–NMR, based on the intensity ratio of ligand signals between the STD experiment and a 1D reference spectrum, were validated using ^1H,^15N heteronuclear single quantum coherence (HSQC) experiments with water flip back and watergate water suppression[34]^,[35], with spectra assessed for chemical shift perturbations (CSPs) relative to a control containing d6-DMSO. […] Spectra were recorded with 40 scans, and a ^1H spectral width of 9615.4 Hz and a ^15N spectral width of 2128.9 Hz, with 2048 and 256 complex points, respectively. All experiments were recorded at 298 K using a Bruker Avance 600 MHz spectrometer (^1H frequency, 600 MHz) equipped with a 5 mm QCI cryoprobe.

mirolysin [6] = biological target: T1, mirolysin; experiment: Determination of KD by microscale thermophoresis; type: binding
Experimental: The Monolith NT.115 instrument (NanoTemper) was used to analyse binding interactions between mirolysin and compounds 9, 10, and 21. Lysine residues of mirolysin were fluorescently labelled with the Monolith NT Protein Labelling Kit RED-NHS-Red dye (NanoTemper), strictly according to the manufacturer’s instruction (a 7 M excess of dye was used). Compounds at concentrations ranging from 1.5 to 25 000 nM were incubated for 5 min at 20 °C with 20 nM mirolysin. Experiments were performed in 0.1 M Tris, 0.15 M NaCl, 5 mM CaCl2, 0.05% Pluronic-F127, 0.02% NaN3, pH 7.5. Samples were loaded into Monolith NT.115 Standard Treated glass capillaries (NanoTemper), and an initial fluorescence measurement followed by a thermophoresis measurement was carried out using 80% LED power and high microscale thermophoresis (MST) power. KD values were calculated using MO. Affinity Analysis software (NanoTemper). Each experiment was performed in triplicate.

mirolysin [7] = biological target: T1, mirolysin; experiment: Screening of compound specificity: mirolysin; type: biochemical; conditions: read-out: decrease in mirolysin activity
Experimental: as §2

human thrombin = biological target: T6, human thrombin (Homo sapiens, UniProt P00734); experiment: Screening of compound specificity: thrombin; type: biochemical; conditions: 100 nM protease, 100 M excess of compound, Azocoll
T6 construct: purchased Merck Sigma-Aldrich
Experimental: as §2

Kgp = biological target: T7, Kgp (Porphyromonas gingivalis, UniProt B2RLK2); experiment: Screening of compound specificity: Kgp; type: biochemical; conditions: 100 nM protease, 100 M excess of compound, FTC-casein
T7 construct: made in house
Experimental: as §2

[8] = biological target: Arg-specific gingipains, Rgp; set-up: method as in PMID 15361547; conditions: cited from earlier work
promirolysin (proM^wt) = experiment: Effect of compounds on promirolysin autoprocessing (activation in cis); type: biochemical, Tannerella forsythia
Experimental: ProM^wt (70 µM) was activated at 37 °C in 5 mM Tris, 50 mM NaCl, 0.02% NaN3, pH 8.0, alone or in the presence of a […] excess of different compounds. At specific time points, aliquots were withdrawn and analysed by SDS–PAGE (10% gels; 4 µl sample, preincubated with 1:1 (vol:vol) of 20 mM 1,10-phenanthroline for 5 min at room temperature), and measured in a proteolytic activity assay, employing FTC-casein (25 µg/ml) as a substrate.

[9] = […] excess of compound, FTC-casein

Row | Compound | inhibition at 2 µM (mirolysin [2]) [%] | effect on RgpB activity (RgpB) | IC50 (mirolysin [3]) [µM] | effect on forsilysin activity (forsilysin) | effect on trypsin activity (bovine trypsin) | effect on karilysin activity (karilysin) | effect on mirolase activity (mirolase) | Ki (mirolysin [4]) [µM] | mode of inhibition (mirolysin [4]) | effect on plasmin activity (human plasmin) | Kd (mirolysin [5]) | Kd (mirolysin [6]) [µM] | inhibition at 10 µM (mirolysin [7]) [%] | effect on thrombin activity (human thrombin) | effect on Kgp activity (Kgp) | other results
1 | CN(NC(=O)CC[C@H](NC(=O)OCc1ccccc1)C(=O)N[C@@H](CCCCN)C(=O)C(=O)NCc1ccccc1)c1ccccc1 [Kyt-36] | – | – | – | – | – | – | – | – | – | – | – | – | – | – | – | Ki [1]: 0.075 nM
2 | NCc1cccc(-c2ccco2)c1 [cpd 10] | 10 to 20 | almost completely unaffected | 6.6 | almost completely unaffected | almost completely unaffected | almost completely unaffected | almost completely unaffected | 22 | reversible competitive inhibitors | almost completely unaffected | 278 µM | 9.7 | 20 | almost completely unaffected | almost completely unaffected | –
3 | CN(C)C(=O)[C@H](CCCCN)NC(=O)C(=O)[C@H](CCCN=C(N)N)NC(=O)[C@H](CCCCN)NC(=O)OCc1ccccc1 [Kyt-1] | – | – | – | – | – | – | – | – | – | – | – | – | – | – | – | Ki [8]: 0.00013 µM
4 | NCc1cccc2nsnc12 [cpd 9] | 10 to 20 | almost completely unaffected | 2.3 | almost completely unaffected | almost completely unaffected | almost completely unaffected | almost completely unaffected | 3.2 | reversible competitive inhibitors | almost completely unaffected | 72.2 µM and 72 µM | 1.1 | 50 | almost completely unaffected | almost completely unaffected | effect on RgpB activity (RgpB; listed as Cpd 9): did not affect; effect on forsilysin activity (forsilysin; listed as Cpd 9): did not affect; effect on proteolytic activity in aliquots during proM^wt activation (promirolysin (proM^wt); [9]): significantly decreased; reduction of mirolysin activity after 216 h of proM^wt activation (promirolysin (proM^wt); [9]): 30%; effect on proM^wt maturation (35 kDa zymogen to 31 kDa form, SDS-PAGE) (promirolysin (proM^wt); proM^wt 70 µM, 50 M excess of compound, 37 °C, 216 h): significantly slowed; time to complete proM^wt maturation (promirolysin (proM^wt); proM^wt 70 µM, 50 M excess of compound, 37 °C, SDS-PAGE): > 216 h; effect on trypsin activity (bovine trypsin; listed as Cpd 9): did not affect; effect on karilysin activity (karilysin; listed as Cpd 9): did not affect; effect on mirolase activity (mirolase; listed as Cpd 9): did not affect; effect on plasmin activity (human plasmin; listed as Cpd 9): did not affect; effect on thrombin activity (human thrombin; listed as Cpd 9): did not affect; effect on Kgp activity (Kgp; listed as Cpd 9): did not affect
